Experimental data taken from the NIST ThermoML archive (doi:10.1016/j.fluid.2014.08.005).

Key:
[1] = for viscosity / mass density: 101.33 kPa, Liquid; for viscosity: Cone and plate viscometry; for mass density: Vibrating tube method; for surface tension liquid-gas: Pendant drop shape
[2] = refractive index (Na D-line) (dimensionless); details: 101.33 kPa, Liquid, Standard Abbe refractometry

CCCC[N+](C)(C)C.O=S(=O)([N-]S(=O)(=O)C(F)(F)F)C(F)(F)F [butyltrimethylammonium bis(trifluoromethylsulfonyl)imide]
Details	mass density, [1] [kg/m3]	refractive index, [2]	surface tension liquid-gas, [1] [mN/m]	viscosity, [1] [mPa·s]
283.15 K	1407.8	1.4122	–	254.2
288.15 K	1403.2	1.41083	–	184.6
293.15 K	1398.7	1.40945	–	137.7
293.2 K	–	–	33.4	–
298.15 K	1394.2	1.40818	–	105.2
298.2 K	–	–	33.2	–
303.15 K	1389.8	1.40676	–	82
303.2 K	–	–	33	–
308.15 K	1385.4	1.40538	–	65.2
313.1 K	–	–	32.5	–
313.15 K	1381	1.40405	–	52.7
318.15 K	1376.6	1.40273	–	43.2
323.1 K	–	–	32	–
323.15 K	1372.3	1.40142	–	35.9
328.15 K	1368	1.40006	–	30.2
333.1 K	–	–	31.5	–
333.15 K	1363.7	1.39877	–	25.7
338.15 K	1359.5	1.39747	–	22
343.15 K	1355.2	1.39616	–	19.1
348.15 K	1351	1.39486	–	16.7
353.15 K	1346.8	1.39358	–	14.7

CC[S+](C)CC.O=S(=O)([N-]S(=O)(=O)C(F)(F)F)C(F)(F)F [diethylmethylsulfonium bis[(trifluoromethyl)sulfonyl]imide]
Details	mass density, [1] [kg/m3]	refractive index, [2]	surface tension liquid-gas, [1] [mN/m]	viscosity, [1] [mPa·s]
283.15 K	1517.3	1.42745	–	78.3
288.15 K	1512.2	1.42597	–	62.1
293.15 K	1507.2	1.42452	–	49.9
293.2 K	–	–	35.7	–
298.15 K	1502.3	1.42325	–	41.1
298.2 K	–	–	35.5	–
303.15 K	1497.3	1.42168	–	34.1
303.2 K	–	–	35.3	–
308.15 K	1492.4	1.42026	–	28.7
313.1 K	–	–	34.8	–
313.15 K	1487.6	1.41886	–	24.4
318.15 K	1482.8	1.41744	–	21
323.1 K	–	–	34.4	–
323.15 K	1478	1.41606	–	18.2
328.15 K	1473.2	1.41468	–	15.9
333.1 K	–	–	33.9	–
333.15 K	1468.5	1.41331	–	14
338.15 K	1463.8	1.41195	–	12.5
343.1 K	–	–	33.4	–
343.15 K	1459.1	1.41058	–	11.1
348.15 K	1454.5	1.40925	–	10
353.15 K	1449.8	1.40793	–	9

CCCC[N+](C)(CCCC)CCCC.O=S(=O)([N-]S(=O)(=O)C(F)(F)F)C(F)(F)F [tributylmethylammonium bis((trifluoromethyl)sulfonyl)imide]
Details	mass density, [1] [kg/m3]	refractive index, [2]	surface tension liquid-gas, [1] [mN/m]	viscosity, [1] [mPa·s]
283.15 K	1276	1.4308	–	2049.8
288.15 K	1271.7	1.42933	–	1264
293.15 K	1267.3	1.42787	–	819.2
293.3 K	–	–	30.8	–
298.15 K	1262.8	1.42643	–	538.9
298.2 K	–	–	30.6	–
303.15 K	1258.4	1.42491	–	369.3
303.2 K	–	–	30.2	–
308.15 K	1254.1	1.42338	–	260.4
313.15 K	1249.9	1.42194	–	189.5
313.2 K	–	–	29.7	–
318.15 K	1245.8	1.42047	–	139.6
323.15 K	1241.7	1.41902	–	105.6
323.2 K	–	–	29.1	–
328.15 K	1237.6	1.41758	–	81.5
333.15 K	1233.6	1.41613	–	64.1
338.15 K	1229.5	1.41468	–	51.1
343.15 K	1225.5	1.41324	–	41.4
348.15 K	1221.5	1.4118	–	34
353.15 K	1217.5	1.4104	–	28.3

CC[S+](CC)CC.O=S(=O)([N-]S(=O)(=O)C(F)(F)F)C(F)(F)F [triethylsulfonium bis((trifluoromethyl)sulfonyl)imide]
Details	mass density, [1] [kg/m3]	refractive index, [2]	surface tension liquid-gas, [1] [mN/m]	viscosity, [1] [mPa·s]
283.15 K	1477	1.43056	–	64.4
288.15 K	1472	1.42906	–	51.1
293.15 K	1467.1	1.42765	–	41.1
293.3 K	–	–	35.5	–
298.15 K	1462.1	1.42632	–	33.9
298.2 K	–	–	35.2	–
303.15 K	1457.3	1.42472	–	28.2
303.2 K	–	–	35	–
308.15 K	1452.4	1.42325	–	23.8
313.1 K	–	–	34.4	–
313.15 K	1447.6	1.42185	–	20.3
318.15 K	1442.8	1.42044	–	17.5
323 K	–	–	34	–
323.15 K	1438.1	1.41906	–	15.2
328.15 K	1433.4	1.41767	–	13.4
333.1 K	–	–	33.4	–
333.15 K	1428.7	1.41629	–	11.8
338.15 K	1424	1.4149	–	10.5
343.1 K	–	–	32.9	–
343.15 K	1419.4	1.41353	–	9.4
348.15 K	1414.8	1.41215	–	8.5
353.15 K	1410.2	1.41077	–	7.7
